From patent US11033556B2, “Bicyclic sulfonamides” (priority 2019, dated 2021)
Like-named read-outs stand apart in the source and are kept apart here.

Columns and labels:
HBV = experiment: HBV-DNA Antiviral Assay Using HepG2.2.15 Cells; format: cell-based; settings: HepG2.2.15 cells, extracellular HBV DNA by qPCR, read-out: EC50
Description: The following assay procedure describes the HBV antiviral assay. This assay uses HepG2.2.15 cells, which have been transfected with HBV genome, and extracellular HBV DNA quantification as endpoint. Cell viability is assessed in parallel by measuring the intracellular ATP content using the CellTiter-Glo® reagent from Promega.
On day 0, HepG2.2.15 cells were seeded in 96-well plates at a density of 6.0×10^4 cells/well(0.1 ml/well). The cells were incubated at 37° C. and 5% CO2.
On day 1, the test articles were diluted and added to cell culture wells (8 concentrations, 4-fold dilution, in duplicate). GLS4, Tenofovir and Sorafenib were used as reference compounds. 100 μl of culture medium containing the compounds was added to the plate, and the final total volume per well was 200 μl. The final concentration of DMSO in the culture medium was 0.5%. The plate map of compound treatment is shown below. The cells were cultured at 37° C. and 5% CO2 for 3 days.
On day 4, the plates were refreshed with culture media with compounds.
On day 7, cell viability was assessed using the CellTiter-Glo®, and the cell culture supernatants were collected for determination of HBV DNA by qPCR.
Extracellular DNA was isolated with QIAamp 96 DNA Blood Kit per the manufacturer's manual. HBV DNA was then quantified by qPCR with HBV specific primers and probes as specified in Table 2 using the FastStart Universal MasterMix from Roche on an ABI-7900HT. The PCR cycle program consisted of 95° C. for 10 min, followed by 40 cycles at 95° C. for 15 sec and 60° C. for 1 min.
A DNA standard was prepared by dilution of the pAAV2 HBV1.3 plasmid with concentrations ranging from 10 to 1×10^7 […] and used to generate a standard curve by plotting Ct value vs. the concentration of the HBV plasmid DNA standard. The quantity of HBV DNA in each sample was determined by interpolating from the standard curve.
Cell viability was calculated as follows: % Cell viability=(luminescence value of test sample−average luminescence value of blank)/(average luminescence value of 0.5% DMSO control−average luminescence of blank)×100%. HBV DNA inhibition was calculated as follows: 100−(HBV DNA copy number of test sample−HBV DNA copy number of ETV)/HBV DNA copy number of 0.5% DMSO control−HBV DNA copy number of ETV)×100%. The CC50, EC50 and EC90 values were determined by dose-response curves fitted by GraphPad Prism using “log (agonist) vs. response—Variable slope”.

genotype D HBV = experiment: HBV-DNA Antiviral Assay Using HepG2.117 Cells; format: cell-based; settings: intracellular HBV DNA by qPCR, day 4
Description: The following assay procedure describes the HBV antiviral assay, using HepG2.117 cells, which carry a stably integrated genotype D HBV genome under the control of a Tet-off promoter, and intracellular HBV DNA quantification as endpoint. Cell viability is assessed in parallel by measuring the intracellular ATP content using ATPlite (Perkin Elmer).
On day 0, HepG2.117 cells (which are maintained in routine cell culture with doxycycline present in the medium at a final concentration of 1 μg/mL) were seeded in 96-well plates (white with clear bottom) at a density of 2.0×10^4 cells/well (0.1 mL/well) in medium without doxycycline to induce pgRNA transcription and subsequent formation of HBV particles. The cells were incubated at 37° C. and 5% CO2.
On day 1, medium was removed from each well, the test articles were diluted in culture medium without doxcycyline and 100 μL was added to cell culture wells (9 concentrations, 4-fold dilution). For each plate, 6 untreated (merely DMSO) wells were included. The final concentration of DMSO in the culture medium was 2%. Each plate was prepared in duplicate (one for HBV DNA extraction, one for ATPlite measurement). The cells were incubated at 37° C. and 5% CO2 for 3 days.
On day 4, cell viability was assessed using ATPlite and cell lysates were prepared for HBV DNA extraction and subsequent quantification by qPCR.
Medium was removed from each well and 100 μL of 0.33% NP-40 in H2O was added to each well. Plates were sealed, incubated at 4° C. for 5 mins, vortexed extensively and centrifuged briefly. Next, 35 μL of lysate was added to 65 μL QuickExtract DNA Extraction Solution (Epicentre) in a PCR plate for each well. PCR plate was incubated at 65° C. for 6 mins, 98° C. for 2 mins and finally cooled to 4° C. HBV DNA was then quantified by qPCR with HBV-specific primers and probes as specified in Table 4 using the Bio-Rad SSOAdvanced Universal Probes Supermix on a CFX96 machine (Bio-Rad). The PCR cycle program consisted of 95° C. for 3 mins, followed by 40 cycles at 95° C. for 10 sec and 60° C. for 30 sec.
A DNA standard was prepared by dilution of an IDT gBlock corresponding to the amplicon with concentrations ranging from 10^2 to 10^8 copies/input (i.e. per 4 μL) and used to generate a standard curve by plotting Cq values vs. HBV DNA standard concentration. The quantity of HBV DNA in each sample was determined by interpolating from the standard curve.
Cell viability was calculated as follows: % Cell viability=(luminescence value of test sample)/(average luminescence value of 2% DMSO control)×100%. HBV DNA inhibition was calculated as follows: 100−(HBV DNA copy number of test sample)/(average HBV DNA copy number of 2% DMSO control)×100%. No normalization to entecavir was required due to the excellent dynamic window of this assay. The CC50, EC50 and EC90 values were determined by dose-response curves fitted by GraphPad Prism using “log (agonist) vs. response—Variable slope”.

[1] = Hepatitis B virus, one class for the group of four: *at least 2 of the diastereomers have the indicated activity

In the case of `C=C[C@H]1COc2c(cn(C)c2C(=O)Nc2ccc(F)c(C#N)c2)S(=O)(=O)N1` [Compound 1, (3S)—N-(3-cyano-4-fluorophenyl)-3-ethenyl-7-methyl-1,1-dioxo-2H,3H,4H-11λ6-pyrrolo[3,4-b][1,4,5]oxathiazepine-6-carboxamide], the EC50 (HBV; day 7) is reported as < 1 µM and the EC50 (genotype D HBV) is reported as 0.001 to 0.01 µM.
In the case of `C=C[C@@H](O)[C@H]1CCc2c(cn(C)c2C(=O)Nc2ccc(F)c(C#N)c2)S(=O)(=O)N1` [Compound 4A, (3R)—N-(3-cyano-4-fluorophenyl)-3-[(1R)-1-hydroxyprop-2-en-1-yl]-7-methyl-1,1-dioxo-2H,3H,4H,5H-1λ6-pyrrolo[3,4-f][1,2]thiazepine-6-carboxamide], the EC50 (HBV; [1]) is reported as < 1 µM.
For `C=C[C@H](O)[C@H]1CCc2c(cn(C)c2C(=O)Nc2ccc(F)c(C#N)c2)S(=O)(=O)N1` [Compound 4B, (3R)—N-(3-cyano-4-fluorophenyl)-3-[(1S)-1-hydroxyprop-2-en-1-yl]-7-methyl-1,1-dioxo-2H,3H,4H,5H-1λ6-pyrrolo[3,4-f][1,2]thiazepine-6-carboxamide], the EC50 (HBV; [1]) was < 1 µM.
`C=C[C@H](O)[C@@H]1CCc2c(cn(C)c2C(=O)Nc2ccc(F)c(C#N)c2)S(=O)(=O)N1` [Compound 4C, (3S)—N-(3-cyano-4-fluorophenyl)-3-[(1S)-1-hydroxyprop-2-en-1-yl]-7-methyl-1,1-dioxo-2H,3H,4H,5H-1λ6-pyrrolo[3,4-f][1,2]thiazepine-6-carboxamide] was tested, and the EC50 (HBV; [1]) was < 1 µM.
For `C=C[C@@H](O)[C@@H]1CCc2c(cn(C)c2C(=O)Nc2ccc(F)c(C#N)c2)S(=O)(=O)N1` [Compound 4D, (3S)—N-(3-cyano-4-fluorophenyl)-3-[(1R)-1-hydroxyprop-2-en-1-yl]-7-methyl-1,1-dioxo-2H,3H,4H,5H-1λ6-pyrrolo[3,4-f][1,2]thiazepine-6-carboxamide], the EC50 (HBV; [1]) was < 1 µM.
In the case of `Cn1cc2c(c1C(=O)Nc1ccc(F)c(C#N)c1)OC[C@H](C=C(F)F)NS2(=O)=O` [Compound 6A], the EC50 (HBV; Hepatitis B virus, 168 h, day 7) is reported as < 1 µM.
